Test results: patent publication US20260272865A1, “HYDROXYPHENYL PROPANOATE COMPOUNDS FOR TUMOUR IMMUNOTHERAPY, COMPOSITIONS AND USES THEREOF” (UTI LIMITED PARTNERSHIP, priority 2023, published 2026)
Entries after “also recorded” stand apart in the source; their conditions may differ.

What was measured:
[1] = tested on: GSDMD-mediated anti-tumour immunity; assay: Orthotopic M3-9-M^OVA RMS in WT vs GSDMD-KO mice; assay type: in vivo, mouse
Source text: It was hypothesized that the HPP metabolite enhances cancer immunity by targeting a critical signalling protein involved in the NF-κB pathway. […] Through nonparametric analysis of the response curves (NPARC) (Mol. Cell. Proteomics 18, (2019)), 647 potential protein targets of 3,2-HPP metabolite were identified (FIG. 10b). To narrow down the investigation, GSDMD was focused on (FIG. 10c, d), which is a cell membrane pore-forming protein that plays a critical role in inflammasome pathway, IL-1β release and tumour immunity (Cell Rep. 34, (2021); Cell Res. 25, 1285-98 (2015); J. Immunother. Cancer 10, (2022); Cell Rep. 41, (2022); Int. Immunopharmacol. 74, (2019); J. Dig. Dis. 19, (2018); Int. J. Biol. Sci. 17, (2021); Nat. Commun. 13, 1-20 (2022); BMC Cancer 20, (2020); Oncogene 41, 5092-5106 (2022)). A correlation between the expression of inflammasome genes, GSDMD and NF-κB1 in tumour infiltrated immune cells was observed (FIG. 11). Whether 3,2-HPP targets GSDMD-mediated anti-tumour immunity was validated by orthotopically implanting M3-9-M^OVA RMS into the gastrocnemius muscle of male C57BL/6NJ (WT) and C57BL/6N-Gsdmdem4Fcw/J (KO) mice (FIG. 10e).

[2] = tested on: GSDMD regulated cytokines; assay: Cytokine level of tumour interstitial fluid of M3-9-M^OVA tumours; assay type: in vivo, mouse
Method: Cells were seeded in a 96-well plate at a density of 0.5-1.0×10^6 cells/well and treated with PRR agonists in combination with or without metabolites. To measure cytokine levels, culture supernatant was collected at specific timepoints. To check cytokine levels of the tumour interstitial fluid, samples were prepared following the protocol, as mentioned by Kim et al (Nat. Commun. 8, (2017)). Cellular IL-1 levels were determined by incubating HEK-Blue™ IL-1β cells ([…]) with the collected culture supernatant and measuring the SEAP levels in the culture medium using QUANTI-Blue™ solution ([…]). Multiplexed quantification of cytokines, chemokines, and growth factors was also conducted by Eve Technologies Corp. (Calgary, Alberta) using the Luminex™ 200 system (Luminex, Austin, TX, USA).

GSDMD = target: T1, GSDMD (Homo sapiens, UniProt P57764); assay: Western blot of GSDMD cleavage in THP-1 cells; assay type: cell-based
T1 construct: host or cells: THP1-Dual cells (human monocytic reporter line)
T1 sequence (P57764 1-484): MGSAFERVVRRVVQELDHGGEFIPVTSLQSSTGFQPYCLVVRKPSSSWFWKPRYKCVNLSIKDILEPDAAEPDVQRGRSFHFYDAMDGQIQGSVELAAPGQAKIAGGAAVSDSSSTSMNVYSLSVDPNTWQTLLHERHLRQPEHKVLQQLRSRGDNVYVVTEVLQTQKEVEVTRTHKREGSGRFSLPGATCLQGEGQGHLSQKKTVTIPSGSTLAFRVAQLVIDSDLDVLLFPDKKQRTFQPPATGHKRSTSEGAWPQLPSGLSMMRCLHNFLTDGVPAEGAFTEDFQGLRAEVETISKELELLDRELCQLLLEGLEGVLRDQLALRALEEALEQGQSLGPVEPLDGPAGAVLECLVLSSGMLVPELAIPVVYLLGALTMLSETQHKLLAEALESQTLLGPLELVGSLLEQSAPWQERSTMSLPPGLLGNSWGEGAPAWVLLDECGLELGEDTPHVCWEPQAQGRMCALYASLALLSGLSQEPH
Method: Cells were collected and lysates prepared using total lysis buffer (50 mM Tris-HCl, pH 8.0; 150 mM NaCl; 1% Triton X-100; 1% SDS). The supernatant was obtained by centrifuging at 10,000 RPM for 10 minutes at 4° C. using a benchtop PCR centrifuge. Protein quantification was performed using the Bio-Rad DC Protein Assay Kit (Bio-Rad, NC, USA). Proteins were separated using 12% SDS-PAGE gels and transferred to a PVDF membrane using the Bio-Rad Trans-turbo semi-dry transfer apparatus at 25 V/1 A for 1 hour. The membrane was blocked with Tris-buffered-saline-Tween-20™ (TBST) containing 5% skim milk for 30 minutes at room temperature. The membrane was then probed overnight at 4° C. with rabbit monoclonal recombinant anti-GSDMD antibody (ab210070, Abcam), anti-cleaved N-terminal GSDMD antibody (ab215203, Abcam) and mouse anti-actin monoclonal antibody (MAB1501, MilliporeSigma) for human FL-GSDMD, CL-GSDMD and actin. The next day, the membranes were washed with TBST three times and probed with goat anti-rabbit (1706515, Bio-Rad) or goat anti-mouse (1706516, Bio-Rad) horseradish peroxidase-conjugated IgG for 1 hour at room temperature. The secondary antibodies were diluted in TBST containing 5% (w/v) skim milk at 1:5000 and the membranes washed with TBST before detecting the proteins of interest using the Clarity™ Western ECL Substrate (Bio-Rad) on a Chemidoc-IT Imager (UVP, Upland, CA, USA).

SMILES: O=C(O)CCc1ccccc1O [Compound I-1, 3-(2-hydroxyphenyl)propanoic acid]
- effect on tumours implanted in GSDMD-KO mice ([1]; male C57BL/6N-Gsdmdem4Fcw/J (KO) mice): had no effect
- overall survival ([1]; male C57BL/6NJ (WT) mice): increased overall survival
- tumour growth ([1]; male C57BL/6NJ (WT) mice): decreased tumour growth
- IL-1β release ([2]; M3-9-M^OVA tumours): notable increase
- secretion of GSDMD regulated cytokines / cytokine milieu in TME ([2]; male JAX C57BL/6 mice, 14 days, treatment from day 1, listed as 3,2-HPP): impacted the secretion; also recorded: significantly shifts
- GSDMD cleavage in the presence of LPS or LPS+NG stimulation (GSDMD): facilitating gasdermin D cleavage
